According to US20070010671A1, “Novel quinazoline derivatives and methods of treatment related to the use thereof” (priority 2003, published 2007):

These compounds were tested against MCH receptor (Homo sapiens, UniProt Q99705) (assay: High throughput functional screening FLIPR/FDSS6000: inhibition of MCH-evoked intracellular Ca2+ changes). Conditions: class by percent of control at 10^-7 M or IC50.
Format: cell-based
How it was run: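 Cells expressing constitutively active MCH receptor, loaded with 4 μM Fluo4-AM for 1 h at 37 °C, were pretreated 3 min with compound, then challenged with MCH (50 nM for antagonist testing). MCH-evoked [Ca2+]i transients followed by FLIPR or FDSS (ex 488/em 530 nm) over 290 s.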
For `Cc1c(NC(=O)NC[C@H]2CC[C@@H](Nc3nc(N(C)C)c4ccccc4n3)CC2)cccc1[N+](=O)[O-]` [compound 506, N-[(cis-4-{[4-(dimethylamino)quinazolin-2-yl]amino}cyclohexyl)methyl]-N′-(2-methyl-3-nitrophenyl)urea], the class was 1 (Class 1: The value of percent of control at 10^−7 M was less than 40% or the value of IC50 was less than 50 nM.).
With `Cc1cccc([N+](=O)[O-])c1NC(=O)NC[C@H]1CC[C@@H](Nc2nc(N(C)C)c3ccccc3n2)CC1` [compound 509, N-[(cis-4-{[4-(dimethylamino)quinazolin-2-yl]amino}cyclohexyl)methyl]-N′-(2-methyl-6-nitrophenyl)urea] the class was 1 (Class 1: The value of percent of control at 10^−7 M was less than 40% or the value of IC50 was less than 50 nM.).
`Cc1ccccc1CNC(=O)NC[C@H]1CC[C@@H](Nc2nc(N(C)C)c3ccccc3n2)CC1` [compound 510, N-[(cis-4-{[4-(dimethylamino)quinazolin-2-yl]amino}cyclohexyl)methyl]-N′-(2-methylbenzyl)urea] was tested, and the class was 2 (Class 2: The value of percent of control at 10^−7 M was from 40% to 60% or the value of IC50 was from 50 nM to 200 nM.).
With `CN(C)c1nc(N[C@H]2CC[C@@H](CNC(=O)Nc3ccc4ccccc4c3)CC2)nc2ccccc12` [compound 511] the class was 3 (Class 3: The value of percent of control at 10^−7 M was more than 60% or the value of IC50 was more than 200 nM.).
For `CN(C)c1nc(N[C@H]2CC[C@@H](CNC(=O)Nc3ccccc3[N+](=O)[O-])CC2)nc2ccccc12` [compound 512, N-[(cis-4-{[4-(dimethylamino)quinazolin-2-yl]amino}cyclohexyl)methyl]-N′-(2-nitrophenyl)urea], the class was 2 (Class 2: The value of percent of control at 10^−7 M was from 40% to 60% or the value of IC50 was from 50 nM to 200 nM.).
With `CCCc1ccccc1NC(=O)NC[C@H]1CC[C@@H](Nc2nc(N(C)C)c3ccccc3n2)CC1` [compound 513, N-[(cis-4-{[4-(dimethylamino)quinazolin-2-yl]amino}cyclohexyl)methyl]-N′-(2-propylphenyl)urea] the class was 1 (Class 1: The value of percent of control at 10^−7 M was less than 40% or the value of IC50 was less than 50 nM.).
`CN(C)c1nc(N[C@H]2CC[C@@H](CNC(=O)Nc3ccccc3Oc3ccccc3)CC2)nc2ccccc12` [compound 514, N-[(cis-4-{[4-(dimethylamino)quinazolin-2-yl]amino}cyclohexyl)methyl]-N′-(2-phenoxyphenyl)urea] was tested, and the class was 2 (Class 2: The value of percent of control at 10^−7 M was from 40% to 60% or the value of IC50 was from 50 nM to 200 nM.).
With `Cc1cccc(C(C)(C)C)c1NC(=O)NC[C@H]1CC[C@@H](Nc2nc(N(C)C)c3ccccc3n2)CC1` [compound 515, N-(2-tert-butyl-6-methylphenyl)-N′-[(cis-4-{[4-(dimethylamino)quinazolin-2-yl]amino}cyclohexyl)methyl]urea] the class was 1 (Class 1: The value of percent of control at 10^−7 M was less than 40% or the value of IC50 was less than 50 nM.).
In the case of `CN(C)c1nc(N[C@H]2CC[C@@H](CNC(=O)Nc3ccccc3C(C)(C)C)CC2)nc2ccccc12` [compound 516, N-(2-tert-butylphenyl)-N′-[(cis-4-{[4-(dimethylamino)quinazolin-2-yl]amino}cyclohexyl)methyl]urea], the class is reported as 1 (Class 1: The value of percent of control at 10^−7 M was less than 40% or the value of IC50 was less than 50 nM.).
With `CSc1cccc(NC(=O)NC[C@H]2CC[C@@H](Nc3nc(N(C)C)c4ccccc4n3)CC2)c1` [compound 517, N-[(cis-4-{[4-(dimethylamino)quinazolin-2-yl]amino}cyclohexyl)methyl]-N′-[3-(methylthio)phenyl]urea] the class was 2 (Class 2: The value of percent of control at 10^−7 M was from 40% to 60% or the value of IC50 was from 50 nM to 200 nM.).
`CN(C)c1nc(N[C@H]2CC[C@@H](CNC(=O)Nc3cccc(SC(F)(F)F)c3)CC2)nc2ccccc12` [compound 518] was tested, and the class was 3 (Class 3: The value of percent of control at 10^−7 M was more than 60% or the value of IC50 was more than 200 nM.).
For `CN(C)c1nc(N[C@H]2CC[C@@H](CNC(=O)Nc3ccc4c(c3)OCO4)CC2)nc2ccccc12` [compound 519], the class was 3 (Class 3: The value of percent of control at 10^−7 M was more than 60% or the value of IC50 was more than 200 nM.).
With `COc1cc(NC(=O)NC[C@H]2CC[C@@H](Nc3nc(N(C)C)c4ccccc4n3)CC2)cc(OC)c1OC` [compound 520] the class was 3 (Class 3: The value of percent of control at 10^−7 M was more than 60% or the value of IC50 was more than 200 nM.).
With `CN(C)c1nc(N[C@H]2CC[C@@H](CNC(=O)NCc3ccc(Cl)c(Cl)c3)CC2)nc2ccccc12` [compound 521] the class was 3 (Class 3: The value of percent of control at 10^−7 M was more than 60% or the value of IC50 was more than 200 nM.).
For `CN(C)c1nc(N[C@H]2CC[C@@H](CNC(=O)Nc3ccc(F)c(F)c3)CC2)nc2ccccc12` [compound 522, N-(3,4-difluorophenyl)-N′-[(cis-4-{[4-(dimethylamino)quinazolin-2-yl]amino}cyclohexyl)methyl]urea], the class was 1 (Class 1: The value of percent of control at 10^−7 M was less than 40% or the value of IC50 was less than 50 nM.).
`COc1ccc(NC(=O)NC[C@H]2CC[C@@H](Nc3nc(N(C)C)c4ccccc4n3)CC2)cc1OC` [compound 523] was tested, and the class was 3 (Class 3: The value of percent of control at 10^−7 M was more than 60% or the value of IC50 was more than 200 nM.).
`COc1cc(NC(=O)NC[C@H]2CC[C@@H](Nc3nc(N(C)C)c4ccccc4n3)CC2)cc(OC)c1` [compound 525] was tested, and the class was 2 (Class 2: The value of percent of control at 10^−7 M was from 40% to 60% or the value of IC50 was from 50 nM to 200 nM.).
With `Cc1cc(C)cc(NC(=O)NC[C@H]2CC[C@@H](Nc3nc(N(C)C)c4ccccc4n3)CC2)c1` [compound 526] the class was 3 (Class 3: The value of percent of control at 10^−7 M was more than 60% or the value of IC50 was more than 200 nM.).
In the case of `COC(=O)c1cccc(NC(=O)NC[C@H]2CC[C@@H](Nc3nc(N(C)C)c4ccccc4n3)CC2)c1` [compound 527], the class is reported as 3 (Class 3: The value of percent of control at 10^−7 M was more than 60% or the value of IC50 was more than 200 nM.).
In the case of `Cc1c(Cl)cccc1NC(=O)NC[C@H]1CC[C@@H](Nc2nc(N(C)C)c3ccccc3n2)CC1` [compound 528], the class is reported as 1 (Class 1: The value of percent of control at 10^−7 M was less than 40% or the value of IC50 was less than 50 nM.).
`CN(C)c1nc(N[C@H]2CC[C@@H](CNC(=O)Nc3ccc(F)c(Cl)c3)CC2)nc2ccccc12` [compound 529] was tested, and the class was 1 (Class 1: The value of percent of control at 10^−7 M was less than 40% or the value of IC50 was less than 50 nM.).
In the case of `COc1ccc(NC(=O)NC[C@H]2CC[C@@H](Nc3nc(N(C)C)c4ccccc4n3)CC2)cc1Cl` [compound 530], the class is reported as 3 (Class 3: The value of percent of control at 10^−7 M was more than 60% or the value of IC50 was more than 200 nM.).
With `CCc1cccc(NC(=O)NC[C@H]2CC[C@@H](Nc3nc(N(C)C)c4ccccc4n3)CC2)c1` [compound 531, N-[(cis-4-{[4-(dimethylamino)quinazolin-2-yl]amino}cyclohexyl)methyl]-N′-(3-ethylphenyl)urea] the class was 2 (Class 2: The value of percent of control at 10^−7 M was from 40% to 60% or the value of IC50 was from 50 nM to 200 nM.).
With `CN(C)c1nc(N[C@H]2CC[C@@H](CNC(=O)Nc3cc(F)cc(C(F)(F)F)c3)CC2)nc2ccccc12` [compound 532] the class was 2 (Class 2: The value of percent of control at 10^−7 M was from 40% to 60% or the value of IC50 was from 50 nM to 200 nM.).
For `CN(C)c1nc(N[C@H]2CC[C@@H](CNC(=O)NCc3cccc(F)c3)CC2)nc2ccccc12` [compound 533, N-[(cis-4-{[4-(dimethylamino)quinazolin-2-yl]amino}cyclohexyl)methyl]-N′-(3-fluorobenzyl)urea], the class was 2 (Class 2: The value of percent of control at 10^−7 M was from 40% to 60% or the value of IC50 was from 50 nM to 200 nM.).
With `CN(C)c1nc(N[C@H]2CC[C@@H](CNC(=O)Nc3cccc(Oc4ccccc4)c3)CC2)nc2ccccc12` [compound 534] the class was 3 (Class 3: The value of percent of control at 10^−7 M was more than 60% or the value of IC50 was more than 200 nM.).
For `CCCCOC(=O)c1ccc(NC(=O)NC[C@H]2CC[C@@H](Nc3nc(N(C)C)c4ccccc4n3)CC2)cc1` [compound 535], the class was 3 (Class 3: The value of percent of control at 10^−7 M was more than 60% or the value of IC50 was more than 200 nM.).
With `CN(C)c1nc(N[C@H]2CC[C@@H](CNC(=O)Nc3ccc(C(F)(F)F)cc3)CC2)nc2ccccc12` [compound 536] the class was 3 (Class 3: The value of percent of control at 10^−7 M was more than 60% or the value of IC50 was more than 200 nM.).
`CN(C)c1nc(N[C@H]2CC[C@@H](CNC(=O)Nc3ccc(SC(F)(F)F)cc3)CC2)nc2ccccc12` [compound 537] was tested, and the class was 3 (Class 3: The value of percent of control at 10^−7 M was more than 60% or the value of IC50 was more than 200 nM.).
In the case of `Cc1cc(NC(=O)NC[C@H]2CC[C@@H](Nc3nc(N(C)C)c4ccccc4n3)CC2)c([N+](=O)[O-])cc1C` [compound 538], the class is reported as 2 (Class 2: The value of percent of control at 10^−7 M was from 40% to 60% or the value of IC50 was from 50 nM to 200 nM.).
In the case of `CN(C)c1nc(N[C@H]2CC[C@@H](CNC(=O)Nc3ccc(OCc4ccccc4)cc3)CC2)nc2ccccc12` [compound 539], the class is reported as 3 (Class 3: The value of percent of control at 10^−7 M was more than 60% or the value of IC50 was more than 200 nM.).
`CN(C)c1nc(N[C@H]2CC[C@@H](CNC(=O)Nc3ccc(Cc4ccccc4)cc3)CC2)nc2ccccc12` [compound 540] was tested, and the class was 3 (Class 3: The value of percent of control at 10^−7 M was more than 60% or the value of IC50 was more than 200 nM.).
`CN(C)c1nc(N[C@H]2CC[C@@H](CNC(=O)Nc3ccc(Br)cc3C(F)(F)F)CC2)nc2ccccc12` [compound 541, N-[4-bromo-2-(trifluoromethyl)phenyl]-N′-[(cis-4-{[4-(dimethylamino)quinazolin-2-yl]amino}cyclohexyl)methyl]urea] was tested, and the class was 2 (Class 2: The value of percent of control at 10^−7 M was from 40% to 60% or the value of IC50 was from 50 nM to 200 nM.).
